Measurements from PMC7616161 (ACS chemical neuroscience, 2020).
Substitutions are numbered along the chain they refer to.

Columns and labels:
Format in all cases: cell-based
[1] = target: T1, hM1 WT mAChR (M1 muscarinic acetylcholine receptor) (Homo sapiens, UniProt P11229); assay: cell-based
T1 sequence (P11229 1-460): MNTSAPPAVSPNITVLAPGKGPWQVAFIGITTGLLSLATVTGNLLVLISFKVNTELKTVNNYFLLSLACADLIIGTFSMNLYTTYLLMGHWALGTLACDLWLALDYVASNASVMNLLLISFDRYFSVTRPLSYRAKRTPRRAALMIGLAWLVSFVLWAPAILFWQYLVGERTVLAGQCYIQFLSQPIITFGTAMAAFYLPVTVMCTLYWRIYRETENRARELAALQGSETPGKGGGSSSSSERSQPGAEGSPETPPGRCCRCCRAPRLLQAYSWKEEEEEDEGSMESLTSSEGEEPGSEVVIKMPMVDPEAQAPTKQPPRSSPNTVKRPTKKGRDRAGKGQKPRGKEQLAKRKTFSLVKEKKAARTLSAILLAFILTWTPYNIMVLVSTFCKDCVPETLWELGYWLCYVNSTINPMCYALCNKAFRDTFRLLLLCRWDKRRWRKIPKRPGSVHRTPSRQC

[2] = target: T2, hM1 WT mAChR (M1 muscarinic acetylcholine receptor) (Homo sapiens, UniProt P11229, A196G/Y106C); assay: IP1 accumulation
T2 sequence (P11229 1-460 Y106C/A196G): T1 sequence (P11229 1-460) with Y106C, A196G

[3] = target: T2, hM1 WT mAChR (M1 muscarinic acetylcholine receptor); assay: cell-based
[4] = target: T1, hM1 WT mAChR (M1 muscarinic acetylcholine receptor); assay: IP1 accumulation; settings: for pEC50^b / IP1 / M1WT: […] h, […] °C, pH […]
[5] = target: T3, hM1 WT mAChR (M1 muscarinic acetylcholine receptor) (Homo sapiens, UniProt P11229, Y106C/A196G); assay: whole-cell [3H]NMS inhibition binding, allosteric ternary complex model; settings: M1 DREADD, printed as Y3.[…] and A5.[…]; HBSS, […] HEPES pH […]; allosteric
T3 sequence (P11229 1-460 Y106C/A196G): T1 sequence (P11229 1-460) with Y106C, A196G

[6] = target: T1, hM1 WT mAChR (M1 muscarinic acetylcholine receptor); assay: as above
[7] = target: T2, hM1 WT mAChR (M1 muscarinic acetylcholine receptor); assay: as above
[8] = target: T3, hM1 WT mAChR (M1 muscarinic acetylcholine receptor); assay: cell-based

## C[N+]1([O-])CCN(C2=Nc3cc(Cl)ccc3Nc3ccccc32)CC1 [CNO]
[1]
  Ki: 12600 nM
[2]
  EC50: 5.37 nM
[3]
  Ki: 126 nM

## Cn1cc(-c2ccc(COc3ccccc3-c3cc(=O)n(C4CCCCC4O)cn3)cc2)cn1 (stereo not drawn) [MIPS1780, 3-(2-hydroxycyclohexyl)-6-(2-((4-(1-methyl-1H-pyrazol-4-yl)-benzyl)oxy)phenyl)-pyrimidin-4(3H)-one]
[4]; allosteric agonist, no ACh added
  pEC50^b / IP1 / M1WT: 6.86 ± 0.19
[5]
  pKI^b (nH)^c / M1DREADD: 5.3 ± 0.09
[6]; HBSS, […] HEPES pH […], allosteric
  pKI^b (nH)^c / M1WT: 6.0 ± 0.10

## Cc1cnc(C(=O)N[C@H]2CCOC[C@@H]2O)cc1Cc1ccc(-c2cscn2)cc1 [PF-06767832, N-((3R,4S)-3-hydroxytetrahydro-2H-pyran-4-yl)-5-methyl-4-(4-(thiazol-4-yl)benzyl)pyridine-2-carboxamide]
[4]
  EC50: 12.9 nM
[7]
  Ki: 5010 nM
[6]
  Ki: 501 nM

## O=C(N[C@H]1CCCC[C@@H]1O)[C@H]1CN(Cc2ccc(-n3cccn3)cc2)c2ccccc2O1 [VU0486846, (2R)-N-[(1S,2S)-2-hydroxycyclohexyl]-4-[(4-pyrazol-1-ylphenyl)-methyl]-2,3-dihydro-1,4-benzoxazine-2-carboxamide]
[4]
  EC50: 372 nM
[7]
  Ki: 25100 nM
[6]
  Ki: 794 nM

## O=C1CCCN1CC#CCN1CCCC1 [oxotremorine]
[1]
  pKI^b (nH)^c / M1WT: 6.0 ± 0.04
[4]; orthosteric agonist
  pEC50^b / IP1 / M1WT: 7.68 ± 0.12
[8]
  pKI^b (nH)^c / M1DREADD: 4.3 ± 0.05
